Experimental data as given in patent publication US4874526A, “Treatment of water” (Ciba-Geigy Corporation, priority 1981, dated 1989).
Like-named read-outs stand apart in the source and are kept apart here. One block for each compound: values may come before it.

Legend:
[1] = test system: mixed culture of bacteria; assay: Minimum concentration required to kill a given number of organisms (MKC), mixed culture of slime-forming bacteria, 5 hours exposure; format: cell-based
Description: The effect of the number of organisms present on the biological activity of tri-n-butyl tetradecyl phosphonium chloride was compared with that for various quaternary ammonium compounds. This was done by measuring the MKC value i.e. the minimum concentration (expressed in ppm active ingredient) of chemical required to kill a given number or organisms. In the test carried out, a suspension of a mixed culture of bacteria containing the following slime-forming organisms:
Proteus vulgaris was diluted to give suspensions containing 10^6 /ml (A), 10^5 /ml (B) and 10^4 /ml (C) bacteria. These suspensions were then exposed to varying concentrations of the biocides for 5 hours and the MKC value measured.

[2] = Standard Ross-Miles foam test; format: physicochemical; conditions: 0.05%; for foam production: compared with S or 22
[3] = Surface tension of dilute aqueous solutions (Example 2); format: physicochemical; conditions: FIG. 8, in comparison with 22
Description: The surface activity of the following compounds was measured by determining the surface tension of dilute aqueous solutions of the chemicals: […]

Scenedesmus obliquus = assay: Algal growth inhibition (MIC), strain A (Example 7); format: cell-based; conditions: Tetradesmus obliquus
Description: (§1) The algae was diluted (1 to 200) in further algae medium and the phosphonium compounds added to give final concentrations of 1, 2.5, 3.4 and 6.8 ppm active ingredient. The algal suspensions were then incubated in a shaking water bath at 18° C., with a daily cycle of 14 hours light and 10 hours darkness. The suspensions were assessed visually for growth of algae and the Minimum Inhibition Concentration (MIC) was recorded as the lowest concentration of product at which there was no growth for each algal strain. A similar experiment was also carried out using a mixed algal culture including strains a to d together with the following strains:
(§2) The activity of the phosphonium compounds listed below against three strains of algae is determined according to the procedure set out in example 5.

Tribonema aequale = assay: Algal growth inhibition (MIC), strain B (Example 7); format: cell-based
Description: as §1, §2

Haematococcus lacustris = assay: Algal growth inhibition (MIC), strain C (Example 7); format: cell-based
Description: as §1
The activity of the phosphonium compounds listed below against three strains of algae is determined according to the procedure set out in example 5. The three strains of algae are:
Haematococcus lacustris (C)

Oscillatoria geminata = assay: Algal growth inhibition (MIC), strain a (Example 5); format: cell-based; conditions: Jaaginema geminatum
Description: (§3) Cultures of the following strains of algae were grown in algae nutrient medium over a period of 14 days:
(a) Oscillatoria geminata
as §1, with “strains: […]” for “strains:”

Phormidium foveolarum = assay: Algal growth inhibition (MIC), strain b (Example 5); format: cell-based; conditions: Nodosilinea foveolarum
Description: as §3
(b) Phormidium foveolarum
as §1, with “strains: […]” for “strains:”

Chlorella vulgaris = assay: Algal growth inhibition (MIC), strain c (Example 5); format: cell-based
Description: as §3
as §1, with “strains: […]” for “strains:”

Scenedesmus spec. = assay: Algal growth inhibition (MIC), strain d (Example 5); format: cell-based
Description: as §3
as §1, with “strains: […]” for “strains:”

mixed algal culture = assay: Algal growth inhibition (MIC), mixed algal culture (Example 5); format: cell-based
Description: as §1
In this experiment the concentrations of phosphonium compounds present were 2, 5, 7.5 and 10 ppm.

germs = assay: Survival rate of germs in circulation systems with cooling tower; conditions: 3 h, 20 ppm active ingredient, read-out: Survival rate of germs 3h after biocide addition
Description: The compounds below were tested in circulation systems, set up on a roof, and consisting of the following:
1. A plastic barrel having a volume of 113 liters.
2. A Siemens pump (21 liters/minute delivery at a delivery hight of 3 meters).
3. A cooling tower with Oreogn pine heartwood, oak, spruce, asbestos cement and PVC panels.
120-124 liters of make-up water were added daily to achieve a half-life in the system of about one day.
The systems were inoculated naturally with airborne dust, spores and pollen.
The systems were treated with compound to be tested on the first day then on day 7, day 21 and over 45 days. The number of germs/ml of water in the system is measured before and 3 hours after addition of the compound being tested.
The germ count was carried out by standard serial dilution and plating out on Agar nutrient and, afer incubation, counting the bacterial colonies present on the surface.
In each case the dosage of compound added was 20 ppm active ingredient.

[4] = Reduction of the surface tension of water (Example 6); format: physicochemical; conditions: distilled water 72.8 dynes/cm
Description: The effect of respective test compounds on the surface tension of water was also determined, the results being shown in the following Table:
Reduction of the surface tension.

[5] = Foaming in the cooling system (Example 6); format: physicochemical
algae = assay: Anti-algal effect, algae in general; format: cell-based; conditions: compared with triphenyl-dodecyl phosphonium chloride
Source text: The anti-algal effect of the respective test compounds was also examined. […] Thus, the compound of the invention when used in an amount of 1 ppm inhibited the algal strains chlorella vulgaris snd scenedesmus spec. (which strains are very significant strains in cooling systems) where 2, 5 or 10 ppm was required when using triphenyl-dodecyl phosphonium chloride.

[6] = read-out: MKC, A: 10^6/ml bacteria, ppm active ingredient
[7] = read-out: MKC, B: 10^5/ml bacteria, ppm active ingredient
[8] = read-out: MKC, C: 10^4/ml bacteria, ppm active ingredient

Structure (SMILES): CCCCCCCCCC[N+](C)(C)CCCCCCCCCC.[Cl-] [Dimethyl di-n-decyl ammonium chloride, dimethyl di-n-decyl ammonium chloride, reference compound]
MBC [1, 6]: 25 µg/mL
MBC [1, 7]: 25 µg/mL
MBC [1, 8]: 12.5 µg/mL
Foam Height ([2]; 1 minute): 45 mm
Foam Height ([2]; 30 minutes): 40 mm
Foam Height ([2]; 60 minutes): 38 mm

surface activity [3]: high surface activity
Foam Height ([2]; 1 minute): 18 mm
Foam Height ([2]; 30 minutes): 6 mm
Foam Height ([2]; 60 minutes): 4 mm
foam production [2]: much less foam than S or 22
Structure (SMILES): CCCCCCCCCCCC[P+](CCCC)(CCCC)CCCC.[Cl-] [Tri-n-butyl dodecyl phosphonium chloride, tri-n-butyl dodecyl phosphonium chloride]
MIC (Scenedesmus obliquus; strain A, read-out: MIC): 2 µg/mL
MIC (Tribonema aequale; strain B, read-out: MIC): 1 µg/mL
MIC (Haematococcus lacustris; strain C, read-out: MIC): 1 µg/mL

Structure (SMILES): CCCCCCCCCCCC[P+](c1ccccc1)(c1ccccc1)c1ccccc1.[Cl-] [Triphenyl dodecyl phosphonium chloride, triphenyl dodecyl phosphonium chloride, reference compound]
MIC (Oscillatoria geminata): 2.5 µg/mL
MIC (Phormidium foveolarum): 1 µg/mL
MIC (Chlorella vulgaris): 2.5 µg/mL
MIC (Scenedesmus spec.): 3.4 µg/mL
MIC (mixed algal culture): 7.5 µg/mL
viability at 20 ppm (germs; 0 d): 3%
viability at 20 ppm (germs; 7 d): 72%
viability at 20 ppm (germs; 21 d): 110%
viability at 20 ppm (germs; >45 d): 130%
Surface tension ([4]; 5 mg/l): 60.2 dynes/cm
Surface tension ([4]; 10 mg/l): 59.5 dynes/cm
Surface tension ([4]; 15 mg/l): 57.9 dynes/cm
Surface tension ([4]; 20 mg/l): 56.4 dynes/cm
Surface tension ([4]; 30 mg/l): 53.7 dynes/cm
foaming in the cooling system [5]: some foaming problems were encountered
MIC (Scenedesmus obliquus): 3 µg/mL
MIC (Tribonema aequale): 3 µg/mL
MIC (Haematococcus lacustris): 3 µg/mL

Structure (SMILES): CCCCCCCCCCCCCC[P+](c1ccccc1)(c1ccccc1)c1ccccc1.[Br-] [Triphenyl tetradecyl phosphonium bromide, reference compound]
MIC (Scenedesmus obliquus; strain A, read-out: MIC): 6 µg/mL
MIC (Tribonema aequale; strain B, read-out: MIC): 3 µg/mL
MIC (Haematococcus lacustris; strain C, read-out: MIC): 6 µg/mL

Structure (SMILES): CCCCCCCCCCCCCC[P+](CCCC)(CCCC)CCCC.[Br-] [tri-n-butyl tetradecyl phosphonium bromide]
MIC (Oscillatoria geminata; strain a, 18° C., ppm active ingredient, read-out: MIC): 2.5 µg/mL
MIC (Phormidium foveolarum; strain b, 18° C., ppm active ingredient, read-out: MIC): 1 µg/mL
MIC (Chlorella vulgaris; strain c, 18° C., ppm active ingredient, read-out: MIC): 1 µg/mL
MIC (Scenedesmus spec.; strain d, 18° C., ppm active ingredient, read-out: MIC): 1 µg/mL
MIC (mixed algal culture; mixed culture, concentrations 2, 5, 7.5 and 10 ppm, read-out: MIC): 2 µg/mL
MIC (Scenedesmus obliquus; strain A, read-out: MIC): 2 µg/mL
MIC (Tribonema aequale; strain B, read-out: MIC): 0.3 µg/mL
MIC (Haematococcus lacustris; strain C, read-out: MIC): 2 µg/mL

Structure (SMILES): CCCCCCCCCCCCCC[P+](CCCC)(CCCC)CCCC.[Cl-] [tri-n-butyl tetradecyl phosphonium chloride]
MBC [1, 6]: 12.5 µg/mL
MBC [1, 7]: 12.5 µg/mL
MBC [1, 8]: 12.5 µg/mL
surface activity [3]: high surface activity
Foam Height ([2]; 1 minute): 33 mm
Foam Height ([2]; 30 minutes): 19 mm
Foam Height ([2]; 60 minutes): 10 mm
foam production [2]: much less foam than S or 22
MIC (mixed algal culture): 5 µg/mL
viability at 20 ppm (germs; 0 d): 1%
viability at 20 ppm (germs; 7 d): 9%
viability at 20 ppm (germs; 21 d): 6%
viability at 20 ppm (germs; >45 d): 8%
Surface tension ([4]; 5 mg/l): 52.9 dynes/cm
Surface tension ([4]; 10 mg/l): 48.8 dynes/cm
Surface tension ([4]; 15 mg/l): 47.1 dynes/cm
Surface tension ([4]; 20 mg/l): 45.6 dynes/cm
Surface tension ([4]; 30 mg/l): 42.3 dynes/cm
activity against algae (algae): more active against algae than triphenyl-dodecyl phosphonium chloride
MIC (Tribonema aequale): 2 µg/mL
